Assay results published in patent US20240360122A1, “POLYMORPHIC FORMS AND SALTS OF A GLP-1R AGONIST” (Terns (Suzhou) Biotechnology Co., Ltd., priority 2023, published 2024).
Values after ≈ are worked out from the molar mass of the structure shown. Structures can show the parent of a compound that is named as a salt. Marks after values point to notes of the source that are not given here.

Experiments:
[1] = Approximate solubility in different solvents at RT; type: physicochemical; conditions: RT; for solubility: organic solvent or mixture
Protocol: For each experiment, approximately 2 mg of sample was added into a 3-mL glass vial. Corresponding solvents were then added stepwise (50/50/200/700/1000 μL) into the vials until the solids were dissolved visually or a total volume of 2 mL was reached. Solubility results summarized in Table 64 to Table 66 were used to guide the solvent selection in polymorph screening design.

[2] = Characterization of Compound 1 freeform forms: form change on storage or drying (XRPD); type: physicochemical
Protocol: Starting from Compound 1 Freeform Type D, polymorph screening experiments were performed under 50 conditions using different solvent-mediated crystallization or solid transition methods. The obtained solids were characterized by XRPD. According to XRPD comparison results, a total of 16 crystal forms were discovered, named as Type A˜P. The characterization results of all the forms were listed in Table 60.
Freeform Type O was obtained after adding anti-solvent toluene into DMSO solution of Freeform Type D and drying at ambient conditions. After drying at RT under vacuum for 1 day, diffraction peaks of Freeform Type K were observed. As Freeform Type K was a DMSO solvate, it is speculated that Freeform Type O was also a DMSO solvate.

[3] = Competitive experiments of Type A and Type B in different solvent system at different temperature; type: physicochemical; conditions: MeOH/MTBE system
[4] = Kinetic solubility in water and bio-relevant media (SGF, FaSSIF, FeSSIF) at 37° C.; type: physicochemical; conditions: for S: Solubility: calculated by freeform; for FC: Form change: residual solids by XRPD
Protocol: Add 4 mL of medium (H2O, SGF, FaSSIF and FeSSIF). • Rolled at 37° C. (˜25 rpm). Sampling at 1, 2, 4 and 24 hrs. • At each time-point, sampled 0.8 mL of solution or suspension into a centrifuge tube prior to centrifugation (12000 rpm, 37° C., 5 min) and filtration through 0.45 μm PTFE membrane. • Tested pH and concentration for the filtrate. Analyze residual solids by XRPD.
0.1 g of NaCl and 0.05 g of Triton X-100 were weighed into a 50-mL volumetric flask. Purified water was added to dissolve the solid. 67.5 μL HCl (38%, 12M) was added after the solid was dissolved completely. pH was then adjusted to 1.8 using HCl (1 M) or NaOH (1 M). Purified water was added to the volume.
(§1) 0.17 g of anhydrous NaH2PO4, 0.021 g of NaOH and 0.31 g of NaCl were weighed into a 50-mL volumetric flask. ˜48 mL purified water was added to dissolve the solid. pH was adjusted to 6.5 using 1M HCl or 1M NaOH. Purified water was then added to the volume. 0.11 g of SIF powder was added into the volumetric flask.
as §1, with “0.41 mL” for “0.17 g”, “acetic acid, 0.20” for “anhydrous NaH2PO4, 0.021”, “0.59” for “0.31”, “5.0” for “6.5”, “0.56” for “0.11”

[5] = Hygroscopicity by DVS at 25° C.; type: physicochemical
Protocol: DVS was measured via a SMS (Surface Measurement Systems) DVS Intrinsic. The relative humidity at 25° C. were calibrated against deliquescence point of LiCl, Mg(NO3)2 and KCl.

[6] = Solid state stability at 25° C./60% RH and 40° C./75% RH for 1 week; type: physicochemical
Protocol: Each sample was added into a glass vial, sealed by parafilm with several holes, and kept under tested conditions. After one week, samples were taken for XRPD and HPLC purity test.

Protocol for physchem: 0.1 M KH2PO4 solution: added 1.36 g of solid KH2PO4 into a 100-mL volumetric flask, dissolve with ultrapure water and dilute to volume. 0.1 M K2HPO4 solution: added 1.74 g of solid K2HPO4 into a 100-mL volumetric flask, dissolve with ultrapure water and dilute to volume.
Transferred 100 mL of 0.1 M K2HPO4 solution and 30 mL of 0.1 M KH2PO4 to a 250-mL beaker and mix well. Adjusted to pH 7.4 with the KH2PO4 solution to obtain the aqueous pH 7.4 buffer. Pre-equilibrated n-octanol and aqueous buffer (phosphate pH 7.4 buffer) by adding 10 mL n-octanol and 10 mL aqueous buffer into a glass vial and keep it rolling for 24 hrs.
Weighed approximately 1.0 mg solids into a 3-mL glass vial which contained 2.0 mL of saturated n-octanol and accelerate dissolution by ultrasound sonication. Added 1.0 mL of complementary saturated aqueous buffer into the vial. Prepare samples in triplicate. Sealed the glass vial and mix on a rotary mixer at 25° C. for 24 hrs.
The phases were separated. The pH of the aqueous phase was measured by pH meter, and the concentrations of compounds in each phase were determined by HPLC. Samples in n-octanol phase were diluted 10 times by ACN. Distribution coefficient, referred to as Dow, was calculated as the concentration of the test compound in the n-octanol phase divided by the corresponding concentration in the aqueous phase.

SMILES: N#Cc1ccc(COc2cccc(C3CCN(Cc4nc5ccc(C(=O)O)cc5n4Cc4cncs4)CC3)n2)c(F)c1 [Freeform Type A]
- solubility ([1]; 1,4-Dioxane, thermodynamic from solid, 1,4-Dioxane): 1900 to 6300 µg/mL (≈ 3.26 to 10.8 mM)
- solubility ([1]; 2-MeTHF, thermodynamic from solid): 1900 to 6300 µg/mL (≈ 3.26 to 10.8 mM)
- solubility ([1]; ACN, thermodynamic from solid): 1000 to 1900 µg/mL (≈ 1.72 to 3.26 mM)
- solubility ([1]; Anisole, thermodynamic from solid): 1100 to 2100 µg/mL (≈ 1.89 to 3.6 mM)
- solubility ([1]; CPME, thermodynamic from solid): 1100 to 2100 µg/mL (≈ 1.89 to 3.6 mM)
- solubility ([1]; DMSO, thermodynamic from solid): > 40000 µg/mL
- solubility ([1]; EtOAc, thermodynamic from solid): 2000 to 6700 µg/mL (≈ 3.43 to 11.5 mM)
- Approximate solubility ([1]; H2O): S < 1.1 mg/mL
- solubility ([1]; IPA, thermodynamic from solid): 1100 to 2200 µg/mL (≈ 1.89 to 3.78 mM)
- solubility ([1]; IPAc, thermodynamic from solid): 1000 to 1900 µg/mL (≈ 1.72 to 3.26 mM)
- solubility ([1]; MIBK, thermodynamic from solid): 1000 to 2000 µg/mL (≈ 1.72 to 3.43 mM)
- solubility ([1]; MTBE, thermodynamic from solid): < 1000 µg/mL
- solubility ([1]; MeOH, thermodynamic from solid): 6700 to 20000 µg/mL (≈ 11.5 to 34.3 mM)
- Approximate solubility ([1]; THF): S > 38.0 mg/mL
- solubility ([1]; Toluene, thermodynamic from solid): < 1100 µg/mL
- solubility ([1]; n-Heptane, thermodynamic from solid): < 1000 µg/mL
- logP (physchem): 4.78
- logD at 24 h (physchem; pH 7.2): 1.96

SMILES: N#Cc1ccc(COc2cccc(C3CCN(Cc4nc5ccc(C(=O)O)cc5n4Cc4cncs4)CC3)n2)c(F)c1 [Freeform Type F]
- Form change ([2]; after storage at RT): Change to Freeform Type J after storage at RT.

SMILES: N#Cc1ccc(COc2cccc(C3CCN(Cc4nc5ccc(C(=O)O)cc5n4Cc4cncs4)CC3)n2)c(F)c1 [Freeform Type O]
- Form change ([2]; after drying at RT under vacuum): Change to Freeform Type K after drying at RT under vacuum.

SMILES: N#Cc1ccc(COc2cccc(C3CCN(Cc4nc5ccc(C(=O)O)cc5n4Cc4cncs4)CC3)n2)c(F)c1 [Meglumine salt Type B]
- thermodynamic stability, Type A versus Type B [3]: thermodynamically more stable

SMILES: N#Cc1ccc(COc2cccc(C3CCN(Cc4nc5ccc(C(=O)O)cc5n4Cc4cncs4)CC3)n2)c(F)c1 [Tris salt Type C]
- S: Solubility ([4]; FaSSIF, 37° C., 1 hr): 0.16 mg/mL
- FC: Form change ([4]; FaSSIF, 37° C., 1 hr): Yes
- S: Solubility ([4]; FaSSIF, 37° C., 2 hrs): 0.29 mg/mL
- FC: Form change ([4]; FaSSIF, 37° C., 2 hrs): Yes
- S: Solubility ([4]; FaSSIF, 37° C., 4 hrs): 0.28 mg/mL
- FC: Form change ([4]; FaSSIF, 37° C., 4 hrs): Yes
- S: Solubility ([4]; FaSSIF, 37° C., 24 hrs): 0.04 mg/mL
- FC: Form change ([4]; FaSSIF, 37° C., 24 hrs): Yes
- S: Solubility ([4]; FeSSIF, 37° C., 1 hr): 0.17 mg/mL
- FC: Form change ([4]; FeSSIF, 37° C., 1 hr): No
- S: Solubility ([4]; FeSSIF, 37° C., 2 hrs): 0.13 mg/mL
- FC: Form change ([4]; FeSSIF, 37° C., 2 hrs): No
- S: Solubility ([4]; FeSSIF, 37° C., 4 hrs): 0.02* mg/mL
- FC: Form change ([4]; FeSSIF, 37° C., 4 hrs): No
- FC: Form change ([4]; FeSSIF, 37° C., 24 hrs): Yes
- solubility at 24 h ([4]; FeSSIF, 37 °C, pH 5, fessif, thermodynamic from solid, FeSSIF, 37° C., at 24 hrs, read-out: solubility in FeSSIF): 140 µg/mL
- S: Solubility ([4]; H2O, 37° C., 1 hr): 0.46 mg/mL
- FC: Form change ([4]; H2O, 37° C., 1 hr): No
- S: Solubility ([4]; H2O, 37° C., 2 hrs): 0.59 mg/mL
- FC: Form change ([4]; H2O, 37° C., 2 hrs): Yes
- S: Solubility ([4]; H2O, 37° C., 4 hrs): 2.5 mg/mL
- FC: Form change ([4]; H2O, 37° C., 4 hrs): Yes
- S: Solubility ([4]; H2O, 37° C., 24 hrs): 0.99 mg/mL
- FC: Form change ([4]; H2O, 37° C., 24 hrs): Yes
- S: Solubility ([4]; SGF, 37° C., 1 hr): 0.15 mg/mL
- FC: Form change ([4]; SGF, 37° C., 1 hr): No
- S: Solubility ([4]; SGF, 37° C., 2 hrs): 0.03* mg/mL
- FC: Form change ([4]; SGF, 37° C., 2 hrs): No
- S: Solubility ([4]; SGF, 37° C., 4 hrs): 0.04* mg/mL
- FC: Form change ([4]; SGF, 37° C., 4 hrs): Yes
- S: Solubility ([4]; SGF, 37° C., 24 hrs): 0.17 mg/mL
- FC: Form change ([4]; SGF, 37° C., 24 hrs): Yes
- form change of residual solids (XRPD) after solubility test ([4]; all the media (H2O, SGF, FaSSIF, FeSSIF), after 24 hrs): form change was observed
- Kinetic Solubility, 24-h solubility ([4]; in FeSSIF, 24 h, comparison among selected salts and Freeform Type C): 2) In FeSSIF, the 24-h solubility of Tris salt Type C was higher.
- water uptake (DVS) ([5]; 25° C./80% RH): 1.44%
- hygroscopicity ([5]; DVS, 25° C.): slightly hygroscopic
- Water uptake at 25° C./80% RH ([5]; DVS, 25° C./80% RH): 1.44 wt %
- For change after DVS ([5]; XRPD after DVS test): No
- form change after DVS test (XRPD) ([5]; after DVS test): no form change
- HPLC peak Area, RRT 0.70 ([6]; 25° C./60% RH, 1 week): 0.06%
- HPLC peak Area, RRT 0.79 ([6]; 25° C./60% RH, 1 week): 0.23%
- HPLC peak Area, RRT 0.80 ([6]; 25° C./60% RH, 1 week): 0.05%
- HPLC peak Area, RRT 0.85 ([6]; 25° C./60% RH, 1 week): 0.07%
- HPLC peak Area, RRT 0.93 ([6]; 25° C./60% RH, 1 week): 0.09%
- Form change ([6]; 25° C./60% RH/Open/1 week): No
- Purity ([6]; 25° C./60% RH/Open/1 week): 96.76 Area %
- solid-state stability: form change and purity decrease ([6]; 25° C./60% RH/open and 40° C./75% RH/open, 1 week): no form change or significant purity decrease
- HPLC peak Area, RRT 0.70 ([6]; 40° C./75% RH, 1 week): 0.05%
- HPLC peak Area, RRT 0.79 ([6]; 40° C./75% RH, 1 week): 0.25%
- HPLC peak Area, RRT 0.80 ([6]; 40° C./75% RH, 1 week): 0.05%
- HPLC peak Area, RRT 0.85 ([6]; 40° C./75% RH, 1 week): <0.05%
- HPLC peak Area, RRT 0.93 ([6]; 40° C./75% RH, 1 week): 0.09%
- HPLC peak Area, RRT 0.99 ([6]; 40° C./75% RH, 1 week): <0.05%
- HPLC peak Area, RRT 1.12 ([6]; 40° C./75% RH, 1 week): 0.05%
- Form change ([6]; 40° C./75% RH/Open/1 week): No
- Purity ([6]; 40° C./75% RH/Open/1 week): 96.82 Area %
- HPLC peak Area, RRT 0.70 ([6]; Initial): 0.05%
- HPLC peak Area, RRT 0.79 ([6]; Initial): 0.21%
- HPLC peak Area, RRT 0.80 ([6]; Initial): 0.05%
- HPLC peak Area, RRT 0.85 ([6]; Initial): 0.08%
- HPLC peak Area, RRT 0.93 ([6]; Initial): 0.09%
- HPLC peak Area, RRT 1.12 ([6]; Initial): 0.06%
- Purity ([6]; Initial): 96.55 Area %
